In patent US7799753B2, “Bisubstrate inhibitors of protein tyrosine kinases as therapeutic agents” (Board of Governers for Higher Education, priority 2004, dated 2010):
Values belong to the compound of their own block, whether it stands above or below them. Numbered stars: 1 amine (or outer) side, 2 acyl side, 3 side chain; on linkers, the order of the positions; unused ones are H or OH. Square brackets hold non-standard residues; d marks the D form. Peptide text beside a SMILES is read from it. * marks the point of attachment. X2 = CS(=O)(=O)Nc1ccc(C[C@H](N[*:1])C(=O)[*:2])cc1; Phe(4-NH2) = Nc1ccc(C[C@H](N)C(=O)O)cc1; X1 = Nc1ncnc2c1c(-c1ccccc1)nn2CC(=O)*

What was measured:
[1] = target: T1, Src (Homo sapiens, UniProt P12931); assay: Steady-state kinetic radioactive assay with Src (polyE4Y, [γ-32P]ATP), ATP-phosphopeptide conjugates; assay type: biochemical
T1 sequence (P12931 whole entry, species assumed): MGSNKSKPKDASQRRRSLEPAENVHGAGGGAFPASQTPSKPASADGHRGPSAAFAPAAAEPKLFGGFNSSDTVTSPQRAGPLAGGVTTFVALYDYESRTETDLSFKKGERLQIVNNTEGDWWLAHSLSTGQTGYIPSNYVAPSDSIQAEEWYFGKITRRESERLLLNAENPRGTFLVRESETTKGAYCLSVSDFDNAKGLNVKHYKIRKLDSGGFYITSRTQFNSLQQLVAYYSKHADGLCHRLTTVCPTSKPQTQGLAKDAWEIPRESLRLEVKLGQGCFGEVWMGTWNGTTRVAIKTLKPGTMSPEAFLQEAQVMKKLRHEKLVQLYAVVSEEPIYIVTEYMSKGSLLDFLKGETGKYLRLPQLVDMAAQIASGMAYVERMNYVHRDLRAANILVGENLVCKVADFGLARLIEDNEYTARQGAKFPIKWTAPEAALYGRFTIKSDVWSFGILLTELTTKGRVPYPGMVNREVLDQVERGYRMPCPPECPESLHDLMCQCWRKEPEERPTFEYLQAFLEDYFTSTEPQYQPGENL
Procedure: Steady-State Kinetic Assays.
Artificial substrate polyE4Y (average MW: 35 kD) was used for routine kinase activity. The kinase activity of PTKs was first determined using a standard radiometric PTK activity assay. This assay contains polyE4Y as the phosphate accepting substrate, [γ-^32P]-ATP, and MgCl2. After a reaction time of 30 min at 30° C., 35 μl of the reaction mixture was removed and spotted onto a filter paper and placed into warm 5% trichloroacetic acid (TCA). The TCA stops the kinase reaction, precipitates the proteins and polyE4Y onto the filter paper, and washes the un-reacted ATP and others away. After 3 TCA washes for 10 min each, the radioactivity remaining on the filter paper was determined by liquid scintillation counting. The assays were done in duplicates and repeated at least three times. Control reactions lacking polyE4Y were included for each enzyme concentration to correct for any non-polyE4Y specific phosphorylation. […] The inhibitory mechanism was determined based on the effect of the compound on the Km and Vm values Inhibitory constant (Ki) was determined by using Sigma Plot 8.0 Enzyme Kinetics Module.

[2] = target: T1, Src; assay: Radioactive kinase assay, polyE4Y phosphorylation by Src (peptides, N-heteroaromatics and conjugates); assay type: biochemical
[3] = read-out: IC50, inhibition of polyE4Y phosphorylation by Src

Compound: CC[C@H](C)[C@H](NC(=O)[C@H](CCC(=O)O)NC(=O)[C@H](CCC(=O)O)NC(=O)[C@H](Cc1ccc(OP(=O)(O)O)cc1)NC(=O)CCC(=O)NCCCOCCOCCOCCCNS(=O)(=O)c1ccc(C(=O)OC[C@H]2O[C@@H](n3cnc4c(N)ncnc43)[C@H](O)[C@@H]2O)cc1)C(=O)O [Compound 9, 4-(sulfamoyl)benzoyladenosine-pYEEI]
- IC50 [1]: > 300 µM
- enhancement of catalytic activity and phosphorylation ([1]; Src): at least 40%

Compound: CC[C@H](C)[C@H](NC(=O)[C@H](CCC(=O)O)NC(=O)[C@H](CCC(=O)O)NC(=O)[C@H](Cc1ccc(OP(=O)(O)O)cc1)NC(=O)CCC(=O)NCCCOCCOCCOCCCN)C(=O)O [Compound 16, H2N-1,13-Trioxa-Suc-pTyr-Glu-Glu-Ile-OH]
- Ki [1]: 608 µM

Compound: CC[C@H](C)[C@H](NC(=O)[C@H](Cc1ccc(O)cc1)NC(=O)Cn1nc(-c2ccccc2)c2c(N)ncnc21)C(=O)N[C@@H](Cc1ccc(O)cc1)C(=O)NCC(=O)N[C@@H](CO)C(=O)N[C@@H](Cc1ccccc1)C(=O)N[C@@H](CCCCN)C(=O)O [Compound 43] (X1-YIYGSFK-OH)
- IC50 [2, 3]: 2.7 µM

Compound: CC[C@H](C)[C@H](NC(=O)[C@H](CS)NC(C)=O)C(=O)N[C@@H](Cc1ccc(O)cc1)C(=O)N[C@@H](CCCCN)C(=O)N[C@@H](Cc1ccc(NS(C)(=O)=O)cc1)C(=O)N[C@@H](Cc1ccc(O)cc1)C(=O)O [Compound 80, Ac-CIYKF(4-NHSO2CH3)Y] (Ac-CIYK[X2]Y-OH)
- IC50 [2]: > 100 µM

The next lines start with the values.

- IC50 [2, 3]: 570 µM
Compound: CC[C@H](C)[C@H](NC(=O)[C@H](Cc1ccc(O)cc1)NC(C)=O)C(=O)N[C@@H](Cc1ccc(O)cc1)C(=O)NCC(=O)N[C@@H](CO)C(=O)N[C@@H](Cc1ccccc1)C(=O)N[C@@H](CCCCN)C(=O)O [Compound 41, Ac-YIYGSFK, reference compound] (Ac-YIYGSFK-OH; C-terminus assumed)

- Src inhibitory potency in words ([2]; qualitative, relative to parent or comparator named in the text): not active
Compound: CC[C@H](C)[C@H](NC(=O)[C@H](CS)NC(C)=O)C(=O)N[C@@H](Cc1ccc(O)cc1)C(=O)N[C@@H](CCCCN)C(=O)N[C@@H](Cc1ccc(O)cc1)C(=O)N[C@@H](Cc1ccc(N)cc1)C(=O)O [Compound 68, Ac-CIYKYF(NH2)] (Ac-CIYKY[Phe(4-NH2)]-OH)

- IC50 ([2]; modified peptide analogs, read-out: IC50 (μM), Src kinase inhibitory potency (Table 1)): > 100 µM
Compound: CC[C@H](C)[C@H](NC(=O)[C@@H](N)Cc1ccc(O)cc1)C(=O)N[C@@H](Cc1ccc(O)cc1)C(=O)NCC(=O)N[C@@H](CO)C(=O)N[C@@H](Cc1ccccc1)C(=O)N[C@@H](CCCCN)C(=O)O [Compound 85, YIYGSFK] (H-YIYGSFK-OH)
